Measurements: PubChem BioAssay (NCI)
Values joined by “and” are separate entries in the source; they are usually repeats but may differ in a detail not shown here. Equal entries are not always repeated.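 Tested at 5 concentrations; 48 h exposure; 96-well plates; endpoints linearly interpolated, else capped at highest concentration. The concentration for 50% growth inhibition is given as GI50. TGI: total growth inhibition.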

Columns and labels:
Experiment in all cases: NCI tumour cell line growth inhibition, 48 h
[1] = system: HOP-18 NSCLC
[2] = system: DLD-1 colon
[3] = system: DMS 114 small cell lung
[4] = system: RXF-631 renal
[5] = system: LXFL 529 NSCLC
[6] = system: SNB-78 CNS
[7] = system: KM20L2 colon
[8] = system: DMS 273 small cell lung
[9] = system: XF 498 CNS
[10] = system: SN12K1 renal
[11] = system: P388 leukemia
[12] = system: P388/ADR leukemia

| Compound | TGI [1] | TGI [2] | TGI [3] | TGI [4] | TGI [5] | TGI [6] | TGI [7] | GI50 [1] | GI50 [2] | GI50 [3] | GI50 [5] | GI50 [8] | TGI [8] | GI50 [6] | GI50 [7] | TGI [9] | TGI [10] | TGI [11] | TGI [12] |
| --- | --- | --- | --- | --- | --- | --- | --- | --- | --- | --- | --- | --- | --- | --- | --- | --- | --- | --- | --- |
| CN(C)CCCNc1ccc2ncn3c4ccccc4c(=O)c1c23 | 68.4 µM | 39.6 µM | > 100 µM | 26.3 µM | > 100 µM | 78.7 µM | 30.4 µM |  |  |  |  |  |  |  |  |  |  |  |  |
| CC(=O)C(O)N1C(=O)C=CC1=O (stereo unspecified) | 31.3 µM and 40.5 µM | 23.6 µM and 3.97 µM | 37.7 µM and 11.1 µM | 33.9 µM | 28.6 µM and 3.32 µM | 37 µM and 54.9 µM | 32.8 µM and 3.51 µM | 17.2 µM | 9.71 µM | 19.6 µM | 15.3 µM | 18 µM | 32.2 µM and 28.1 µM | 19.9 µM | 17.9 µM and 1.9 µM | 31.5 µM |  |  |  |
| CC1C(O)C2(Oc3cc4c(c5c3[C@@H](CC5O)[C@H]2C)CCC2Cc3nc5c(nc3C[C@@]42C)CC2CCC3C4=C[C@H]6O[C@@]7(O[C@@](C)(CO)C[C@@H]7O)C(C)[C@@]6(O)[C@]4(C)[C@@H](O)CC3[C@]2(C)C5)OC1(C)C (stereo partly specified) | > 3.67 µM | > 3.67 µM | 0.904 µM |  |  | 0.584 µM | 0.491 µM |  |  |  |  |  | 0.114 µM |  |  | 0.343 µM | 0.194 µM | 0.435 µM | 1.84 µM |
| Cc1c2cc[n+](CCN3CCCCC3)cc2c(C)c2c1[nH]c1ccc(O)cc12 | 37 µM | 49.6 µM | 21.6 µM |  |  | 64.1 µM | 34.5 µM |  |  |  |  |  | 17.1 µM |  |  |  | 20.3 µM |  | 31.8 µM |
| CCCCCCCSc1nc2c(C(=O)OCC)ncn2c2ccccc12 |  |  | > 100 µM |  | > 100 µM |  | > 100 µM |  |  |  |  |  | > 100 µM |  |  | > 100 µM |  |  |  |
